Literature values as cited in US11446277B2, “Penetrating pain relief cream” (priority 2019, dated 2022).

Key:
[1] = tested on: aggressive human breast cancer cells; settings: in vitro
[2] = tested on: bacteria

Compound: C=C(C)[C@@H]1CCC(C)=C[C@H]1c1c(O)cc(CCCCC)cc1O [CBD, Cannabidiol]
- analgesic properties (animal studies): analgesic properties
- anti-inflammatory activity (animal studies): anti-inflammatory activity
- sedation (animal tests): sedative effects
- growth of aggressive human breast cancer cells [1]: reduce growth
- invasiveness of aggressive human breast cancer cells [1]: reduce their invasiveness
- growth of bacteria [2]: inhibit the growth of bacteria
